SMILES strings stand for the structures.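 Tested at 5 concentrations; 48 h exposure; 96-well plates; endpoints linearly interpolated, else capped at highest concentration. TGI denotes the concentration required for complete inhibition of growth.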 A value given as a limit tells only on which side of the number the result lay.

The results in this text go back to PubChem BioAssay (NCI).

Common to all, as to assay: NCI tumour cell line growth inhibition, 48 h
The subject of experiment [1] is 786-0 renal.
Experiment [2] concerns A498 renal.
The subject of experiment [3] is BT-549 breast.
The test system of experiment [4] is CCRF-CEM leukemia.
In experiment [5] the test system is COLO 205 colon.
Experiment [6] concerns DU-145 prostate.
Experiment [7] relates to HCT-116 colon.
The subject of experiment [8] is HOP-62 NSCLC.
Experiment [9] relates to HT29 colon.
Experiment [10] has as its system M14 melanoma.
Experiment [11] concerns MALME-3M melanoma.
Experiment [12] relates to NCI-H522 lung.
For experiment [13], the system named is OVCAR-5 ovarian.
Experiment [14] has as its system RPMI-8226 leukemia.
For experiment [15], the system named is SF-268 CNS.
The subject of experiment [16] is SK-MEL-2 melanoma.
In experiment [17] the test system is SN12C renal.
Experiment [18] deals with SR leukemia.
The subject of experiment [19] is U251 CNS.
Experiment [20] relates to UACC-257 melanoma.

For `Cc1ccc(Cc2nn(C)c(=O)n2-n2cccc2)cc1`, the TGI in [1], in [2], in [3], in experiment [4], in experiment [5] and in experiment [6] was greater than 100 µM each time. The TGI in [7], in [8], in experiment [9], in [10], in experiment [11] and in [12] was greater than 100 µM in each case. Moreover, the TGI in [13], in experiment [14], in experiment [15], in experiment [16], in experiment [17] and in experiment [18] was greater than 100 µM throughout. Besides, the TGI in experiment [19] and in experiment [20] was greater than 100 µM throughout.
As for `O=C1c2ccccc2-n2c1nc1cc(Cl)ccc1c2=O`, the TGI in experiment [1] is greater than 100 µM; in experiment [2], greater than 100 µM; in [3] it was greater than 100 µM; in experiment [4], 9.2 µM; in experiment [5], greater than 100 µM; in experiment [6], greater than 100 µM. Also, the TGI was greater than 100 µM in [7]; greater than 100 µM in experiment [8]; greater than 100 µM in [9]; greater than 100 µM in experiment [10]; 21.9 µM in experiment [11]; greater than 100 µM in experiment [12]. The TGI in [13], in [14], in [15], in experiment [16], in experiment [17] and in experiment [18] was greater than 100 µM throughout. Further, the TGI was greater than 100 µM in experiment [19] and 29.1 µM in experiment [20].
For the compound `Cc1cn(C2CC(N=[N+]=[N-])C(C(=O)O)O2)c(=O)[nH]c1=O` (stereo not given), the TGI in experiment [1], in experiment [2], in experiment [3], in experiment [4], in experiment [5] and in [6] was greater than 100 µM each time. Further, the TGI in [7], in experiment [8], in [9], in [10], in experiment [11] and in experiment [12] was greater than 100 µM in each case. The TGI in [13], in experiment [14], in experiment [15], in [16], in experiment [17] and in [18] was greater than 100 µM in each case. Besides, the TGI in experiment [19] and in experiment [20] was greater than 100 µM throughout.
`O=c1[nH]cnc2c1ncn2C1SC(CO)C(O)C1O` (stereo not given): the TGI in [1], in experiment [2], in experiment [3], in experiment [4], in experiment [5] and in experiment [6] was greater than 100 µM in each case. Also, the TGI in [7], in experiment [8], in [9], in [10], in experiment [11] and in [12] was greater than 100 µM each time. Also, the TGI in [13], in experiment [14], in [15], in experiment [16], in experiment [17] and in experiment [18] was greater than 100 µM throughout. In addition, the TGI in experiment [19] and in [20] was greater than 100 µM throughout.
In the case of `COc1ccc2[nH]cc(CN3CCC(CO)(c4ccccc4)CC3)c2c1`, the TGI in experiment [1] is 28.6 µM; in [2], greater than 100 µM; in experiment [3], greater than 100 µM; in experiment [4], 75.1 µM; in experiment [5], 40.3 µM; in [6], greater than 100 µM. For the same compound, the TGI in experiment [7] was 35.8 µM; in [8], 58.8 µM; in experiment [9] it was greater than 100 µM; in [10], 32.3 µM; in experiment [11], 62.3 µM; in [12], 35.5 µM. For the same compound, the TGI in experiment [13] was greater than 100 µM; in experiment [14] it was 66 µM; in experiment [15], 34.8 µM; in experiment [16] it was 55.3 µM; in [17], greater than 100 µM; in experiment [18] it was 52.8 µM. The TGI was greater than 100 µM in experiment [19] and 37.2 µM in experiment [20].
